The record followed here is patent US10829473B2, “Modulators of the cystic fibrosis transmembrane conductance regulator protein and methods of use” (AbbVie Overseas S.Á.R.L., priority 2017, dated 2020).

Where two headings read alike, the source gives them in different places.

For this experiment, the target named is T1, F508delCFTR (Homo sapiens, UniProt P13569, DEL508-508).
T1 construct: expressed in transfected cells; host or cells: CFBE41o- human lung derived epithelial cells (CFBE41o-F508delCFTR-HRP), doxycycline-inducible
T1 sequence (P13569 with tags, fused parts or gaps DEL508-508): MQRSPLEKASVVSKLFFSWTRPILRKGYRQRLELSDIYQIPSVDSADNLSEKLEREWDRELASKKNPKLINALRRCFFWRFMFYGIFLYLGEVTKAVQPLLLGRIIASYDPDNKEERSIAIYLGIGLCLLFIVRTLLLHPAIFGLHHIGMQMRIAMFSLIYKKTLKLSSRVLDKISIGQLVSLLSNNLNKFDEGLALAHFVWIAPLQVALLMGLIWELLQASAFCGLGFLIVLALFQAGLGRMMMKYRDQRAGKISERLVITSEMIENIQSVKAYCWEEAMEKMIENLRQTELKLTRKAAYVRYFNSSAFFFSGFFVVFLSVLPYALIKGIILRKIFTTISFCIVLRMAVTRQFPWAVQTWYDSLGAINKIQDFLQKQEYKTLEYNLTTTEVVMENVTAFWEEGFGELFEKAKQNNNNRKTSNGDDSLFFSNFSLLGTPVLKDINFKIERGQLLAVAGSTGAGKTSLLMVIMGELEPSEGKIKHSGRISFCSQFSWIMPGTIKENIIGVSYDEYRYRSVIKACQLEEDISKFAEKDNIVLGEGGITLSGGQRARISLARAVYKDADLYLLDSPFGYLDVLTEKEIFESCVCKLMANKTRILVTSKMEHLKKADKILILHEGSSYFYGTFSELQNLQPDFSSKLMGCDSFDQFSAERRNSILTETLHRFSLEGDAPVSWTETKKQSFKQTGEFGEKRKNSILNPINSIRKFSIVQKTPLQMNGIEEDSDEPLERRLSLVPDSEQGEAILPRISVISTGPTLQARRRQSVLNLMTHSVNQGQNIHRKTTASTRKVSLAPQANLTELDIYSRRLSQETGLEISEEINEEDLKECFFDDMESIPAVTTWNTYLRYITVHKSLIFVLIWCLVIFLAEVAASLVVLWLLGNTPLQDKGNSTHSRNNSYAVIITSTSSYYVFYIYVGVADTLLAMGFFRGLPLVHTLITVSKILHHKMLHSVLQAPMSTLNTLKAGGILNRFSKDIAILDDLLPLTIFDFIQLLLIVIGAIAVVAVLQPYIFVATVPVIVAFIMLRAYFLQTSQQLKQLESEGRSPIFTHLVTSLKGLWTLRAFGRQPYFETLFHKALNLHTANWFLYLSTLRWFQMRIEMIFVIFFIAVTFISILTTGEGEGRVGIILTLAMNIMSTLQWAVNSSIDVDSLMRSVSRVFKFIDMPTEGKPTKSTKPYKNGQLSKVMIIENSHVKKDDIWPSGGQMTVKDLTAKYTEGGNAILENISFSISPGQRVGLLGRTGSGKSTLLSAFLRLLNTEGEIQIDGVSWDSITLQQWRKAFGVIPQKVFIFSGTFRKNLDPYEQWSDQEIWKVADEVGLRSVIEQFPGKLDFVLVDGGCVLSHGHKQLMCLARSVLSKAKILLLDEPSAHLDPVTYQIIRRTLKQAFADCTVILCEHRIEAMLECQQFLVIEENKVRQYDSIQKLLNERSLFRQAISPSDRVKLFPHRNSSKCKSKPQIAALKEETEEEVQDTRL
Nature of the experiment: Cell Surface Expression-Horse Radish Peroxidase (CSE-HRP) Assay.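 For EC50 (with co-corrector): co-corrector chromenyl benzoic acid corrector at 2 or 3 µM.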 The format is cell-based. Particulars: for Maximum % activity (with co-corrector) / Emax: maximum at any tested concentration; for Emax: read-out: Maximum % activity (without co-corrector). As for the experimental part:
A cellular assay for measuring the F508delCFTR cell surface expression after correction with test compounds either without or with a co-corrector (2 μM of 3-[(2R,4R)-4-({[1-(2,2-difluoro-1,3-benzodioxol-5-yl)cyclopropyl]carbonyl}amino)-7-methoxy-3,4-dihydro-2H-chromen-2-yl]benzoic acid), was developed in human lung derived epithelial cell line (CFBE4lo−) (Veit G et al, (2012) Mol Biol Cell. 23(21): 4188-4202). The development was achieved by expressing the F508delCFTR mutation along with a horseradish peroxidase (HRP) in the fourth exofacial loop, and then measuring the HRP activity using luminescence readout from these cells, CFBE410-F508delCFTR-HRP, that were incubated overnight with the test corrector compounds, either without or with the co-corrector. For this primary assay, the CFBE410-F508delCFTR-HRP cells were plated in 384-well plates (Greiner Bio-one; Cat 781080) at 4,000 cells/well along with 0.5 μg/mL doxycycline to induce the F508delCFTR-HRP expression and further incubated at 37° C., 5% CO2 for 68-72 hours. The test compounds were then added either without or with a co-corrector at the required concentrations and further incubated for 18-24 hours at 33° C. The highest concentration tested was 20 μM or 30 μM (GI-1 to GIII-36) with an 8-point concentration response curve using a 3-fold dilution in both the test compound without or with the co-corrector. Three replicate plates were run to determine one EC50. All plates contained negative controls (dimethyl sulfoxide, DMSO) and positive control (2 μM or 3 μM (GI-1 to GIII-36) of 3-[(2R,4R)-4-({[1-(2,2-difluoro-1,3-benzodioxol-5-yl)cyclopropyl]carbonyl}amino)-7-methoxy-3,4-dihydro-2H-chromen-2-yl]benzoic acid) as well as on-plate concentration response of the positive control. Post incubation, the plates were washed 5× times with Dulbecco's phosphate buffered saline (DPBS), followed by the addition of the HRP substrate, luminol (50 4), and measuring the HRP activity using luminescence readout on EnVision® Multilabel Plate Reader (Perkin Elmer; product number 2104-0010). The raw counts from the experiment were analyzed using Accelrys® Assay Explorer v3.3.
Z′ greater than 0.5 was used as passing quality control criteria for the plates.
The Z′ is defined as: 1−[3*SDPositve Control+3*SDNegative Control/Absolute(MeanPositive Control−MeanNegative Control)] wherein “SD” is standard deviation.
The % activity measured at each of the 8 test concentrations of the test compound added either without or with a co-corrector (2 μM or 3 μM (GI-1 to GIII-36) of 3-[(2R,4R)-4-({[1-(2,2-difluoro-1,3-benzodioxol-5-yl)cyclopropyl]carbonyl}amino)-7-methoxy-3,4-dihydro-2H-chromen-2-yl]benzoic acid) was normalized to the on-plate positive control using the following formulae: % activity (Test compound without co-corrector)=[(test compound without co-corrector response DMSO response)/(positive control response DMSO response)]*100 % activity (Test compound with co-corrector)=[(test compound with co-corrector response DMSO response)/(positive control response DMSO response)]*100
The maximum % activity achieved for the test compound either without or with a co-corrector at any tested concentration is presented in Table 6 along with the respective EC50's calculated using the following general sigmoidal curve with variable Hill slope equation (described as Model 42 in the Accelrys® Assay Explorer v3.3 software): y=(a−d)/(1+(x/c)b)+d
General sigmoidal curve with concentration, response, top, bottom, EC50 and Hill slope. This model describes a sigmoidal curve with an adjustable baseline, a. The equation can be used to fit curves where response is either increasing or decreasing with respect to the independent variable, “x”.
“x” is a concentration of drug under test.
“a” is the maximum response, and “d” is the minimum response
“c” is the inflection point (EGO for the curve. That is, “y” is halfway between the lower and upper asymptotes when x=c.
“b” is the slope-factor or Hill coefficient. […]

The mark [1] stands for this setting: test compound with co-corrector.
Where [2] appears, read: test compound with co-corrector, read-out: EC50 (with co-corrector).
The mark [3] stands for this setting: test compound without co-corrector.
Setting [4] is: test compound without co-corrector, read-out: EC50 (without co-corrector).

In general, EC50 refers to the concentration that produces a half-maximal response. For the compound `O=C(NS(=O)(=O)c1cccc2ncccc12)C1(c2cc(C3CC3)cnc2N2CCCC2)CC1` [Example GI-32, 1-[5-cyclopropyl-2-(pyrrolidin-1-yl)pyridin-3-yl]-N-(quinoline-5-sulfonyl)cyclopropane-1-carboxamide], the “Maximum % activity (with co-corrector)” value under setting [1] is “+++ (≥350)”. Moreover, the EC50 under setting [2] was less than 3 µM and the EC50 under setting [4] was 3 to 10 µM. Further, the Emax under setting [3] was more than 150%.
Consider `Cc1ccc2c(S(=O)(=O)NC(=O)C3(c4cc(C5CC5)cnc4N4CCCC4)CC3)cccc2n1` [Example GI-33, 1-[5-cyclopropyl-2-(pyrrolidin-1-yl)pyridin-3-yl]-N-(2-methylquinoline-5-sulfonyl)cyclopropane-1-carboxamide], for which the “Maximum % activity (with co-corrector)” value under setting [1] is on record as “+++ (≥350)”. The concentration for a half-maximal effect (EC50) is, setting by setting: under setting [2], less than 3 µM; under setting [4], 3 to 10 µM. Also, the Emax under setting [3] was more than 150%.
On to `O=C(NS(=O)(=O)c1cccc2[nH]ccc12)C1(c2cc(C3CC3)cnc2N2CCCC2)CC1` [Example GI-34, 1-[5-cyclopropyl-2-(pyrrolidin-1-yl)pyridin-3-yl]-N-(1H-indole-4-sulfonyl)cyclopropane-1-carboxamide], for which the “Maximum % activity (with co-corrector)” value under setting [1] is on record as “+++ (≥350)”. The 50% effective concentration (EC50) is, setting by setting: under setting [2], less than 3 µM; under setting [4], 3 to 10 µM. Under setting [3], the Emax was more than 150%.
On the same counts, the results for `O=C(NS(=O)(=O)c1cccc2ncccc12)C1(c2cc(Cl)cnc2N2CCCC2)CC1` [Example GI-35, 1-[5-chloro-2-(pyrrolidin-1-yl)pyridin-3-yl]-N-(quinoline-5-sulfonyl)cyclopropane-1-carboxamide] are “+++ (≥350)”, less than 3 µM, 3 to 10 µM and more than 150%.
On to `Cc1ccc2c(S(=O)(=O)NC(=O)C3(c4cc(Cl)cnc4N4CCCC4)CC3)cccc2n1` [Example GI-36, 1-[5-chloro-2-(pyrrolidin-1-yl)pyridin-3-yl]-N-(2-methylquinoline-5-sulfonyl)cyclopropane-1-carboxamide], for which the “Maximum % activity (with co-corrector)” value under setting [1] was “+++ (≥350)”. The EC50 was less than 3 µM under setting [2] and 3 to 10 µM under setting [4]. The Emax under setting [3] was more than 150%.
`CCc1cnc(N2CCCC2)c(C2(C(=O)NS(=O)(=O)c3cccc4[nH]ccc34)CC2)c1` [Example GI-37, 1-[5-ethyl-2-(pyrrolidin-1-yl)pyridin-3-yl]-N-(1H-indole-4-sulfonyl)cyclopropane-1-carboxamide]: under setting [1], the “Maximum % activity (with co-corrector)” value is listed as “+++ (≥350)”. Besides, the EC50 by setting is: under setting [2], less than 3 µM; under setting [4], 3 to 10 µM. Under setting [3], the Emax was more than 150%.
On to `CC(C)Oc1ccc(C2CCC2)nc1C1(C(=O)NS(=O)(=O)c2cccc3[nH]ccc23)CC1` [Example GI-38, 1-{6-cyclobutyl-3-[(propan-2-yl)oxy]pyridin-2-yl}-N-(1H-indole-4-sulfonyl)cyclopropane-1-carboxamide], for which, under setting [1], the “Maximum % activity (with co-corrector)” value is recorded as “+++ (≥350)”. For the same compound, the EC50 is less than 3 µM under setting [2] and less than 3 µM under setting [4]. Further, the Emax under setting [3] was more than 150%.
In the case of `CC(C)Oc1ccc(C2CCC2)nc1C1(C(=O)NS(=O)(=O)c2cccc3ncccc23)CC1` [Example GI-39, 1-{6-cyclobutyl-3-[(propan-2-yl)oxy]pyridin-2-yl}-N-(quinoline-5-sulfonyl)cyclopropane-1-carboxamide], under setting [1], the “Maximum % activity (with co-corrector)” value is recorded as “+++ (≥350)”. In addition, the half-maximal effective concentration (EC50) under setting [2] is less than 3 µM and the EC50 under setting [4] was less than 3 µM. For the same compound, the Emax under setting [3] is more than 150%.
As to `CCc1cnc(OC(C)C)c(C2(C(=O)NS(=O)(=O)c3cccc4nc(C)ccc34)CC2)c1` [Example GI-40, 1-{5-ethyl-2-[(propan-2-yl)oxy]pyridin-3-yl}-N-(2-methylquinoline-5-sulfonyl)cyclopropane-1-carboxamide], the “Maximum % activity (with co-corrector)” value under setting [1] is on record as “+++ (≥350)”. The EC50 reads like this: under setting [2], less than 3 µM; under setting [4], less than 3 µM. The Emax under setting [3] is more than 150%.
Regarding `CCc1cnc(OC(C)C)c(C2(C(=O)NS(=O)(=O)c3cccc4[nH]ccc34)CC2)c1` [Example GI-41, 1-{5-ethyl-2-[(propan-2-yl)oxy]pyridin-3-yl}-N-(1H-indole-4-sulfonyl)cyclopropane-1-carboxamide], the “Maximum % activity (with co-corrector)” value under setting [1] is given as “+++ (≥350)”. Besides, the concentration giving a half-maximal response (EC50) reads like this: under setting [2], less than 3 µM; under setting [4], less than 3 µM. The Emax under setting [3] is more than 150%.
As for `Cc1cnc(OCC(C)C)c(C2(C(=O)NS(=O)(=O)c3cccc4ncccc34)CC2)c1` [Example GI-42, 1-[5-methyl-2-(2-methylpropoxy)pyridin-3-yl]-N-(quinoline-5-sulfonyl)cyclopropane-1-carboxamide], under setting [1], the “Maximum % activity (with co-corrector)” value is given as “+++ (≥350)”. The EC50 runs as follows: under setting [2], less than 3 µM; under setting [4], less than 3 µM. Also, the Emax under setting [3] was more than 150%.
Take `Cc1cnc(OCC(C)C)c(C2(C(=O)NS(=O)(=O)c3cccc4nc(C)ccc34)CC2)c1` [Example GI-43, 1-[5-methyl-2-(2-methylpropoxy)pyridin-3-yl]-N-(2-methylquinoline-5-sulfonyl)cyclopropane-1-carboxamide]: the “Maximum % activity (with co-corrector)” value under setting [1] is given as “+++ (≥350)”. Further, the EC50 under setting [2] was less than 3 µM and the EC50 under setting [4] was less than 3 µM. Moreover, the Emax under setting [3] was more than 150%.
Consider `Cc1cnc(OCC(C)C)c(C2(C(=O)NS(=O)(=O)c3cccc4[nH]ccc34)CC2)c1` [Example GI-44, N-(1H-indole-4-sulfonyl)-1-[5-methyl-2-(2-methylpropoxy)pyridin-3-yl]cyclopropane-1-carboxamide], for which, under setting [1], the “Maximum % activity (with co-corrector)” value is recorded as “+++ (≥350)”. Besides, the EC50 under setting [2] was less than 3 µM and the EC50 under setting [4] was less than 3 µM. The Emax under setting [3] is more than 150%.
Consider `CCc1cnc(OCC(C)C)c(C2(C(=O)NS(=O)(=O)c3cccc4ncccc34)CC2)c1` [Example GI-45, 1-[5-ethyl-2-(2-methylpropoxy)pyridin-3-yl]-N-(quinoline-5-sulfonyl)cyclopropane-1-carboxamide], for which the “Maximum % activity (with co-corrector)” value under setting [1] was “+++ (≥350)”. Further, the EC50 is, setting by setting: under setting [2], less than 3 µM; under setting [4], less than 3 µM. Further, under setting [3], the Emax is more than 150%.
With `CCc1cnc(OCC(C)C)c(C2(C(=O)NS(=O)(=O)c3cccc4nc(C)ccc34)CC2)c1` [Example GI-46, 1-[5-ethyl-2-(2-methylpropoxy)pyridin-3-yl]-N-(2-methylquinoline-5-sulfonyl)cyclopropane-1-carboxamide], under setting [1], the “Maximum % activity (with co-corrector)” value was “+++ (≥350)”. Moreover, the EC50 was less than 3 µM under setting [2] and less than 3 µM under setting [4]. Also, the Emax under setting [3] is more than 150%.
Regarding `CCc1cnc(OCC(C)C)c(C2(C(=O)NS(=O)(=O)c3cccc4[nH]ccc34)CC2)c1` [Example GI-47, 1-[5-ethyl-2-(2-methylpropoxy)pyridin-3-yl]-N-(1H-indole-4-sulfonyl)cyclopropane-1-carboxamide], the “Maximum % activity (with co-corrector)” value under setting [1] is listed as “+++ (≥350)”. In addition, the EC50 under setting [2] was less than 3 µM and the EC50 under setting [4] is less than 3 µM. Besides, under setting [3], the Emax is more than 150%.
